The source of these data is publication PMC6213216, “AbeTx1 Is a Novel Sea Anemone Toxin with a Dual Mechanism of Action on Shaker-Type K^+ Channels Activation” (Marine Drugs, 2018).

pIC50: −log10 of the molar value. Positions of bridges follow the written chain, without caps; N, C: chain ends. Residues, ends and D or L forms follow the SMILES beside them.

One test deals with T1, rKV1.6 (Rattus norvegicus, UniProt P17659).
T1 construct: expressed in transfected cells; host or cells: Xenopus laevis oocytes injected with cRNA
T1 sequence (P17659 whole entry): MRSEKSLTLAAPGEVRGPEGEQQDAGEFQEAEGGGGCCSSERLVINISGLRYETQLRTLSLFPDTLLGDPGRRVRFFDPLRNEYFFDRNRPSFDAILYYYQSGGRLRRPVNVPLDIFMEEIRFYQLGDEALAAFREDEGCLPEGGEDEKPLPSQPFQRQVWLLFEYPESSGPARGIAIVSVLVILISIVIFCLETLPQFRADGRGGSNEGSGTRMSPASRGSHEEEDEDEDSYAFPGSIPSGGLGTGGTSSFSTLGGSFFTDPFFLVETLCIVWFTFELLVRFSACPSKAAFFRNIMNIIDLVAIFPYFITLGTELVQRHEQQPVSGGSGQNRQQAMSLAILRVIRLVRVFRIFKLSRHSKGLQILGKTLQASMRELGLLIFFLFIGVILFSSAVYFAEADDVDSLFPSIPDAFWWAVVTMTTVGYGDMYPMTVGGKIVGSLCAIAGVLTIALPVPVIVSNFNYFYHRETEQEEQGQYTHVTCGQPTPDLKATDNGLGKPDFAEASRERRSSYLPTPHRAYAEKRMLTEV
Description: Two-electrode voltage-clamp on Xenopus laevis oocytes expressing rKV1.6. Particulars: concentration-response curve, percentage blocked current fitted with Hill equation; TEVC oocytes, 0 mV from −90 mV; mean ± SE, n ≥ 3; SEM; read-out: KV1.6 IC50. The class given is cell-based. How it is done: (§1) The pharmacological effect of AbeTx1 was analyzed by heterologous expression of 12 voltage-gated potassium channels isoforms (rKV1.1, Genbank NM173095; rKV1.2, Genbank NM012970; hKV1.3, Genbank L23499; rKV1.4,Genbank NM012971; rKV1.5, Genbank NM012972; rKV1.6, Genbank NM575671; Shaker IR from Drosophila melanogaster, Genbank CG12348; rKV2.1, Genbank NM013186; hKV3.1, Genbank NM004976; rKV4.2, Genbank NM031730; rKV4.3, Genbank NM031739 and hERG, Genbank NM000238), and three voltage-gated sodium channel subtypes (rNaV1.2, Genbank NM012647; rNaV1.4, Genbank M26643 and BgNaV1.1, from Blattella germanica) (r, rat; h, human) in oocytes from Xenopus laevis. The linearized plasmids were transcribed using a T7 or SP6 mMESSAGE-mMACHINE transcription kit (Life Technologies, Austin, TX, USA). Oocytes were injected with 20–50 nL of cRNA at a concentration of 1 ng·nL^−1 using a microinjector (Drummond Scientific, Broomall, PA, USA). The oocytes were stored for 1–3 days at 16 °C until sufficient expression of voltage-gated ion channels was achieved. Oocytes were maintained in an ND96 solution (in mM: 96 NaCl, 2 KCl, 1.8 CaCl2, 2 MgCl2 and 5 HEPES; pH 7.4), supplemented with 50 µg·mL^−1 gentamicin sulfate.
(§2) Two-electrode voltage-clamp recordings were performed at room temperature (18–22 °C) using a Geneclamp 500 amplifier (Molecular Devices, Sunnyvale, CA, USA) controlled by a pClamp data acquisition system (Axon Instruments, Union City, CA, USA). ND96 was used as bath solution. Whole-cell currents from oocytes were recorded 1–3 days after injection. Voltage and current electrodes were filled with KCl (3 M). The resistance of both electrodes was kept between 0.8–1.0 MΩ. The elicited currents were filtered at 0.5 or 2 kHz using a four-pole low-pass Bessel filter. Leak subtraction was performed using a -P/4 protocol. KV1.1-KV1.6 and Shaker IR currents were evoked by 500 ms depolarization to 0 mV, followed by a 500 ms pulse to −50 mV, from a holding potential of −90 mV. KV2.1, KV3.1, KV4.2, and KV4.3 currents were elicited by 500 ms pulses to + 20 mV from a holding potential of −90 mV. Current traces of hERG channels were elicited by applying a +40 mV pulse for 2.5 s, followed by a step to −120 mV for 2.5 s. Sodium current traces were evoked by 100 ms depolarization steps from a holding potential of −90 mV to 0 mV. Concentration-response curves were constructed by adding different AbeTx1 or analogs concentrations directly to the bath solution. The percentage of the KV blockade was plotted against the logarithm of the applied concentrations and fitted with the Hill Equation (1):y = 100/[1 + (IC50/[toxin]) × h](1) where y is the amplitude of the toxin-induced effect, IC50 is the toxin concentration at half-maximal efficacy, [toxin] is the toxin concentration, and h is the Hill coefficient. To investigate the effects on the voltage dependence of activation, current traces were evoked by 10 mV depolarization steps from a holding potential of −90 mV. Data were normalized to the maximal K^+ current amplitude, plotted against prepulse potential, and fitted using the Boltzmann Equation (2):IK/Imax = [1 + (exp(Vg − V)/k] − 1(2) where Imax represents maximal potassium current (IK), Vg is the voltage corresponding to half-maximal current, and k is the slope factor. Each experimental data represents mean ± standard error of at least three oocytes (n ≥ 3) from different frogs. Effect of the toxin on current-voltage experiments was statistically examined by comparing the control condition and the presence of toxin using the Student’s paired t-test. P-values < 0.05 are considered to be statistically significant. Data were analyzed using Clampfit 10.4 (Molecular Devices, Sunnyvale, CA, USA) and Origin v8.1 software (Origin Lab, Northampton, MA, USA), under the institutional license of the University of São Paulo.
For orientation: Two-electrode voltage clamp holds a large cell at a set potential and records current.

For the next test, the target named is T2, rKV1.1 (Rattus norvegicus, UniProt P10499).
T2 construct: expressed in transfected cells; host or cells: Xenopus laevis oocytes injected with cRNA
T2 sequence (P10499 whole entry): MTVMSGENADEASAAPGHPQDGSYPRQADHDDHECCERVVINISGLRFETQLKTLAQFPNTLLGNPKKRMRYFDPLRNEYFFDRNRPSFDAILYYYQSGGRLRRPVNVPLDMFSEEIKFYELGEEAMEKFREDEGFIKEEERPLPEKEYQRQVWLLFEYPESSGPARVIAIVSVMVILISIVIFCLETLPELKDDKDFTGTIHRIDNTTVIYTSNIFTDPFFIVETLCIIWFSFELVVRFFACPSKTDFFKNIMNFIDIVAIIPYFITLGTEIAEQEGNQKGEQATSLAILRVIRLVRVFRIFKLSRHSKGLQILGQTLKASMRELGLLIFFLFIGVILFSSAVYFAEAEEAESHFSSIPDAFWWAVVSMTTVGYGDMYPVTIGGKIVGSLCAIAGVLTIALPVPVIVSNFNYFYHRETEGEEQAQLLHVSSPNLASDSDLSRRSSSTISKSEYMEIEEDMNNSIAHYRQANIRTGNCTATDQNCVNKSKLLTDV
Kind of test: Two-electrode voltage-clamp on Xenopus laevis oocytes expressing rKV1.1. It is filed as cell-based. Particulars: concentration-response curve, percentage blocked current fitted with Hill equation; TEVC oocytes, 0 mV from −90 mV; mean ± SE, n ≥ 3; SEM; read-out: KV1.1 IC50. The method, then:
as §1, §2

Turning to `C[C@@H]1NC(=O)[C@@H](NC(=O)[C@@H](N)CCCNC(=N)N)CSSC[C@@H](C(=O)NCC(=O)O)NC(=O)[C@H](CC(N)=O)NC(=O)[C@@H]2CCCN2C(=O)[C@H](CCCCN)NC(=O)[C@@H]2CCCN2C(=O)[C@H](CCCNC(=N)N)NC(=O)[C@@H]2CSSC[C@H](NC(=O)[C@H]([C@@H](C)O)NC1=O)C(=O)N[C@@H](CO)C(=O)N[C@@H](CCCCN)C(=O)NCC(=O)N[C@@H](CCCNC(=N)N)C(=O)N2` [Lys3Ala] (H-RCATCSKGRCRPKPNCG-OH; disulfide 2-16, 5-10), the pIC50 was 4.72 at rKV1.6 and 4.56 on rKV1.1.

Regarding `C[C@H](N)C(=O)N[C@H]1CSSC[C@@H](C(=O)NCC(=O)O)NC(=O)[C@H](CC(N)=O)NC(=O)[C@@H]2CCCN2C(=O)[C@H](CCCCN)NC(=O)[C@@H]2CCCN2C(=O)[C@H](CCCNC(=N)N)NC(=O)[C@@H]2CSSC[C@H](NC(=O)[C@H]([C@@H](C)O)NC(=O)[C@H](CCCCN)NC1=O)C(=O)N[C@@H](CO)C(=O)N[C@@H](CCCCN)C(=O)NCC(=O)N[C@@H](CCCNC(=N)N)C(=O)N2` [Arg1Ala] (H-ACKTCSKGRCRPKPNCG-OH; disulfide 2-16, 5-10), the pIC50 was 5.45 on rKV1.6 and 5.71 at rKV1.1.

One may read the pIC50 as −log10 of the IC50, conventionally taken in molar units.
